Assay results published in US11666559B2, “Spiro-lactam compounds, process and uses thereof” (UNIVERSIDADE DE COIMBRA, priority 2017, dated 2023).
Where two headings read alike, the source gives them in different places.

What was measured:
[1] = test system: Bacillus subtillis ATCC 6633; assay: Anti-bacterial activity, agar diffusion method; assay type: cell-based, Bacillus subtilis; conditions: at the concentration of 1 mg/ml
Protocol: In an embodiment, anti-bacterial activity of the compounds now disclosed was determined according to CLSI guidelines. The following bacteria were used: reference strains E. coli ATCC 10536, Staphylococcus aureus ATCC 6538, Bacillus subtilis ATCC 6633 and Enterococcus faecalis ATCC 29212; clinical strains of E. coli and Pseudomonas aeruginosa isolated in our laboratory; and strains of Lactobacillus rhamnosus and Lactobacillus plantarum also isolated in our laboratory. The Minimum Inhibitory Concentration (MIC) was determined by the agar diffusion method, in plates of Mueller-Hinton agar or Rogosa agar (for Lactobacilli). Briefly, 10^8 cfu/ml bacterial suspensions were prepared in sterile water and spread in the culture media. Sterile disks containing different concentrations of P3 were placed on the inoculated surface. Plates were incubated at 37° C. for 24 h or 48 h. Lactobacilli were incubated at microaerophilic conditions. A negative control made of sterile water was used. Disks of amoxicillin and imipenem were used as positive controls.

[2] = test system: HIV-2
Protocol: (§1) In an embodiment, TZM-bl cells (AIDS Research and Reference Reagent Program, National Institutes of Health, USA) were cultured in complete growth medium that consists of Dulbecco's minimal essential medium (DMEM) supplemented with 10% fetal bovine serum (FBS), 100 U/ml of penicillin-streptomycin (Gibco/Invitrogen, USA), 1 mM of sodium pyruvate (Gibco/Invitrogen, USA), 2 mM of L-glutamine (Gibco/Invitrogen, USA) and 1 mM of non-essential amino acids (Gibco/Invitrogen, USA).
(§2) In an embodiment, the primary isolates 93AOHDC249, 93AOHDC250, 01PTHDECJN and 03PTHCC9, used in this study were previously isolated, titrated and characterized for co-receptor usage. HIV reference strain SG3.1 was obtained by transfection of HEK293T cells with pSG3.1 (HIV-1) plasmid using Fugene 6 reagent (Roche, Switzerland) according to manufacturer's instructions.
(§3) In an embodiment, the 50% tissue culture infectious dose (TCID50) of the virus was determined in a single-round viral infectivity assay using a luciferase reporter gene assay in TZM-bl cells and calculated using the statistical method of Reed and Muench^27.
(§4) In an embodiment, the antiviral activity of the compounds was determined in a single-round assay with TZM-bl cells as previously described ^26. Cells were infected with 200 TCID50 of virus in the presence of serial fold dilutions of the BSS compounds in GM, supplemented with DEAE-dextran (19.7 μg/ml). After 48 h of infection, luciferase expression was quantified with the One-Glow luciferase assay substrate reagent (Promega, USA) according to manufacturer's instructions. Briefly, a volume of reagent equal to that of the culture medium in each well was added. For 96-well plates, typically 100 μl of reagent is added to the cells grown in 100 μl of medium. After an incubation of 3 minutes at room temperature to allow complete cell lysis luminescence was measured in Tecan Infinite M200. Background luminescence was measured by using control wells that contained only target cells and GM. Maraviroc (CCR5 antagonist), T1249 (fusion inhibitor) and AMD3100 (CXCR4 antagonist) were used as positive controls of the antiviral activity. At least two independent experiments were performed for each analysis and each assay was set up in triplicate wells.
(§5) In an embodiment, dose-response curves were estimated from the percentage of inhibition of infection (y-axis) against logo of concentration of each compound (x-axis) using the sigmoidal dose-response equation (variable slope) in GraphPad Prism version 5.00 for Windows (GraphPad Software, San Diego Calif. USA, www.graphpad.com). IC50 and IC90 values were determined from this curve. IC50 and IC90 values correspond to the concentration of compound that inhibits viral replication in 50% and 90%, respectively.

[3] = test system: HIV-1; conditions: for IC50 / IC90: TZM-bl cells
Protocol: as §1, §2, §3, §4, §5

[4] = test system: P. berghei liver stages; assay: In vitro activity against the liver stage of Plasmodium infection (luciferase assay in Huh7 cells); assay type: cell-based, Plasmodium berghei; conditions: for anti-Plasmodium activity (in words): P. berghei liver stages in Huh7 cells
Protocol: FIG. 6: Compound activity against P. berghei liver stages. Anti-Plasmodial activity (infection axis, bars) and toxicity to hepatoma cells (cell confluency axis, circles) are shown. Infection loads of Huh7 cells, a human hepatoma cell line, were determined by bioluminescence measurements of cell lysates 48 h after infection with luciferase-expressing P. berghei parasites. Luciferase assay in 96 well-plate; 10 000 Huh7 cells/well+10 000 PbA-LuciGFPcon spz/well.
In an embodiment, the in vitro activity against the liver stage of Plasmodium infection was also carried out: inhibition of liver stage Plasmodium infection by test compounds was determined by measuring the luminescence intensity in Huh-7 cells infected with a firefly luciferase-expressing P. berghei line, as previously described. Briefly, Huh-7 cells, a human hepatoma cell line, were cultured in 1640 RPMI medium supplemented with 10% v/v fetal bovine serum, 1% v/v nonessential amino acids, 1% v/v penicillin/streptomycin, 1% v/v glutamine, and 10 mM 4-(2-hydroxyethyl)-1-piperazineethanesulfonic acid (HEPES), pH 7, and maintained at 37° C. with 5% CO2. For infection assays, Huh-7 cells (1.0×10^4 per well) were seeded in 96-well plates the day before drug treatment and infection. The medium was replaced by medium containing the appropriate concentration of each compound approximately 1 h prior to infection with sporozoites freshly obtained through disruption of salivary glands of infected female Anopheles stephensi mosquitoes. Sporozoite addition was followed by centrifugation at 1700×g for 5 min. Parasite infection load was measured 48 h after infection by a bioluminescence assay (Biotium). The effect of the compounds on the viability of Huh-7 cells was assessed by the AlamarBlue assay (Invitrogen, U.K.) using the manufacturer's protocol.

[5] = 03PTHCC19, CCR5 tropic HIV-2 isolate, TZM-bl cells, wa = without antiviral activity
[6] = 03PTHCC19, CCR5 tropic HIV-2 isolate, wa = without antiviral activity
[7] = 01PTHDECJN, CCR5 tropic HIV-1 primary isolate
[8] = SG3.1, CXCR4 tropic HIV-1 adapted isolate
[9] = HIV-2 primary isolate 00PTHCC20, X4, resistant to ABC, ZDV, d4T, ddl, LPV
[10] = HIV-2 primary isolate 00PTHDECT, R5/X4, resistant to DTG
[11] = HIV-2 primary isolate 03PTHCC20, X4, resistant to ABC, ZDV, d4T, ddl, LPV
[12] = HIV-2 primary isolate 03PTHSM9, X4, resistant to SQV, LPV, DRV and TAF
[13] = HIV-2 primary isolate 10PTHSJIG, R5, resistant to RAL, DTG, LPV, SQV, DRV and all NRTIs
[14] = HIV-2 primary isolate 15PTHCEC, X4, resistant to RAL, DTG, LPV, SQV, DRV, ABC, ddl, TDF, TAF, 3TC, d4T and FTC
[15] = HIV-2 primary isolate 15PTHSJIG, R5, resistant to RAL, DTG, 3TC and FTC
[16] = Table 3, HIV-2 isolate 03PTHCC19, R5, sensitive (control isolate), TZM-bl cells
[17] = 93AOHDC249, CCR5 tropic HIV-1 primary isolate
[18] = 93AOHDC250, HIV-1 primary isolate

## COC(=O)C1=C[C@@]2(N=N1)C(=O)N1[C@@H](C(=O)O)C(C)(C)S[C@@H]12 [BSS-593, (2,3′R,5R)-5′-(methoxycarbonyl)-3,3-dimethyl-7-oxo-4-thia-1-azaspiro[bicyclo[3.2.0]heptane-6,3′-pyrazole]-2-carboxylic acid]
[1]
  inhibitory activity: no inhibitory activity
[2]
  anti-HIV activity against HIV-2 (in words): only active against HIV-1
[2]; [5]
  IC50: wa
  IC90: wa
[2]; [6]
  MPI (maximum percentage of inhibition): wa
[3]
  anti-HIV activity against HIV-1 (in words): only active against HIV-1
[3]; [7]
  MPI (maximum percentage of inhibition): 58%
  TI (in vitro therapeutic index, CC50/IC50): 4553.31
  IC50: 35 nM
[3]; [8]
  MPI (maximum percentage of inhibition): 84%
  TI (in vitro therapeutic index, CC50/IC50): 13144.76
  IC50: 12 nM
[4]
  anti-Plasmodium activity (in words): presented activity

## CC1(C)S[C@H]2N(C(=O)[C@]23CC=C(C(=O)OCc2ccccc2)[C@@H]3C(=O)c2ccccc2)[C@H]1C(=O)OC(c1ccccc1)c1ccccc1 [BSS-730A]
[1]
  inhibitory activity: no inhibitory activity
[2]
  anti-HIV activity against HIV-2 (in words): potent activity
[2]; 03PTHCC19, CCR5 tropic HIV-2 isolate
  TI (in vitro therapeutic index, CC50/IC50): 14029.58
[2]; [5]
  IC50: 5 nM
  IC90: 145 nM
[2]; [6]
  MPI (maximum percentage of inhibition): 99%
[2]; HIV-2, concentration of 15.21 μM
  inhibition: about 100%
[2]; [9]
  IC50: 18 nM
  IC90: 73 nM
[2]; [10]
  IC50: 23 nM
  IC90: 57 nM
[2]; [11]
  IC50: 19 nM
  IC90: 95 nM
[2]; [12]
  IC50: 16 nM
  IC90: 116 nM
[2]; [13]
  IC50: 12 nM
  IC90: 32 nM
[2]; [14]
  IC50: 17 nM
  IC90: 51 nM
[2]; [15]
  IC50: 18 nM
  IC90: 56 nM
[2]; [16]
  IC50: 8 nM
  IC90: 64 nM
[3]
  anti-HIV activity against HIV-1 (in words): potent activity
[3]; [17]
  MPI (maximum percentage of inhibition): 99%
  TI (in vitro therapeutic index, CC50/IC50): 2946.32
  IC50: 26 nM
  IC90: 118 nM
[3]; [18]
  MPI (maximum percentage of inhibition): 94%
  TI (in vitro therapeutic index, CC50/IC50): 20247.69
  IC50: 4 nM
  IC90: 19.7 nM
[3]; HIV-1, concentration of 15.21 μM
  inhibition: about 100%
[3]; [8]
  MPI (maximum percentage of inhibition): 99%
  TI (in vitro therapeutic index, CC50/IC50): 5584.30
  IC50: 14 nM
  IC90: 25.2 nM
[4]
  anti-Plasmodium activity (in words): presented activity
[4]; luciferase-expressing P. berghei in Huh7 cells, 48 h after infection
  IC50: 550 nM
